Values joined by “and” are separate entries in the source; they are usually repeats but may differ in a detail not shown here. Equal values may be shown once.

Usually viability, T/C stands for the ratio of treated to control.
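Note: luminescent signal used as a stand-in for viable cell amount; spheroids exposed to compounds for seven days before the viability read; 100% = DMSO vehicle control wells.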

One assay concerns 186277-243-T-J2-PDC complex spheroid growth. Nature of the assay: Anticancer human tumor 186277-243-T-J2-PDC patient-derived colon adenocarcinoma cell line growth inhibition [AhR]. Conditions: compound 0.000316 µM; stronger effect = lower value. The text has this: Multicellular complex tumor spheroid response to aryl hydrocarbon receptor antagonists in combination with a variety of drugs and investigational agents in selected tumor cell lines
The current study was undertaken to assess response to aryl hydrocarbon receptor antagonists in combination with standard-of-care drugs and investigational agents in solid tumor complex spheroid models. Complex spheroids include a stromal component modeled by human endothelial cells (HUVEC) and fibroblasts modeled by human mesenchymal stem cells (MSCs). The concentration ranges selected for each drug and investigational agent were based upon clinically achievable concentrations if the clinical Cmax of the agent was known.
Compounds. The drugs and investigational agents: BAY 2416964 (NSC825713), GNF351 (NSC835774), CH-223191 (NSC835775), CPI-455 (NSC825282), aza-TdCyd (NSC777586), decitabine (NSC127716), belinostat (NSC758774), entinostat (NSC756642), pevonedistat (NSC761192), tazemetostat (NSC777109), talazoparib (NSC765396), olaparib (NSC753686), selinexor (NSC780203), nedisertib (M3814, NSC802822), bortezomib (NSC756655), venetoclax (NSC766270), doxorubicin (NSC123127), elimusertib (BAY189344, NSC800525), ceralasertib (AZD6738, NSC777638), TAK-243 (NSC785004), alisertib (NSC759677), etoposide (NSC141540), topotecan (NSC609699), eribulin (NSC707389), gemcitabine (NSC613327), carboplatin (NSC241240), cisplatin (NSC119875), and SN-38 (NSC673596) were obtained from the National Cancer Institute (NCI) Developmental Therapeutics Program Chemical Repository (32). The FDA-approved anticancer drug set is available from the Developmental Therapeutics Program at https://dtp.cancer.gov/organization/dscb/obtaining/available plates.htm. […] The stock solutions were prepared in dimethyl sulfoxide (DMSO, Sigma-Aldrich, St. Louis, MO, cat. D2650), except for the platinum compounds which were prepared in saline (Quality Biological, Gaithersburg, MD, cat. 114-055-101), at 800-fold the tested concentration and stored at -70 degrees C prior to their use. All drugs and investigational agents were tested over a range starting from a high concentration at or near the clinical Cmax and decreasing in half-log increments. If the clinical Cmax for an agent had not been determined, the highest concentration tested was 10 microM (Table 1).
Cell Culture. All cells were maintained in an incubator at 37 degrees C and 5% CO2 with 95% humidity. The PDC lines were cultured according to standard operating procedures established by the NCI PDMR (https://pdmr.cancer.gov). Briefly, all PDCs were thawed and cultured in Matrigel-coated flasks prepared with a working solution of 1X Ham's F-12 nutrient mix, without supplementation (Invitrogen, Waltham, MA, cat. 11765054), 100 U/mL penicillin-streptomycin (Invitrogen, cat. 15140122), and 2.5% Matrigel (Corning Inc., Corning, NY, cat. 354248) for the first three passages. All PDCs were cultured in complete DMEM/F-12 media containing advanced DMEM/F-12 (Invitrogen, cat. 12634028), 4.9% defined fetal bovine serum, heat inactivated (HyClone Laboratories Inc., Logan, UT, cat. SH30070.03HI), 389 ng/mL hydrocortisone (Sigma-Aldrich, cat. H4001), 9.7 ng/mL human EGF recombinant protein (Invitrogen, cat. PHG0313), 23.4 microg/mL adenine (Sigma-Aldrich, cat. A2786), 97.3 U/mL penicillin-streptomycin (Invitrogen, cat. 15140122), 1.9 mM L-glutamine (Invitrogen, cat. 25030081), and 9.7 microM Y-27632 dihydrochloride (Tocris Bioscience, Bristol, United Kingdom, cat. 1254). The PDCs were cultured in complete DMEM/F12 media without 10 microM Y-27632 dihydrochloride for at least two passages prior to the screen. The established cell lines NCI-H1341 and […] were cultured in DMEM/F-12, HEPES (Invitrogen, cat. 11330032), 5% defined fetal bovine serum (HyClone Laboratories Inc., cat. SH30070.03), ITS premix universal culture supplement [insulin (5 microg/mL), transferrin (5 microg/mL), and selenious acid (5 ng/mL)] […]
In the case of `CC[C@@]1(O)C(=O)OCc2c1cc1n(c2=O)Cc2cc3c(CN(C)C)c(O)ccc3nc2-1`, the viability, T/C was 100% and 99.5% and 110%.
The same measure, in the same setting: the same measure for `Cn1ncnc1C1c2n[nH]c(=O)c3cc(F)cc(c23)NC1c1ccc(F)cc1` (stereo unspecified): 102% and 97.2% and 113%.

The same assay, now with this note: compound 0.000949 µM; stronger effect = lower value.
As for `CC(C)CC(NC(=O)C(Cc1ccccc1)NC(=O)c1cnccn1)B(O)O` (stereo unspecified), the viability, T/C was 106% and 98.7% and 108%.
With `CCc1c2c(nc3ccc(O)cc13)-c1cc3c(c(=O)n1C2)COC(=O)[C@]3(O)CC`, the viability, T/C is 118% and 125% and 49.3%.
`Nc1ncn(C2CC(O)C(CO)S2)c(=O)n1` (stereo unspecified): the viability, T/C is 87.2% and 104% and 95.7%.

Still in this assay, the particulars now being: compound 0.001 µM; stronger effect = lower value.
Consider `CC[C@@]1(O)C(=O)OCc2c1cc1n(c2=O)Cc2cc3c(CN(C)C)c(O)ccc3nc2-1`, for which the viability, T/C is 94.2% and 104% and 99.4%.
On to `Cn1ncnc1C1c2n[nH]c(=O)c3cc(F)cc(c23)NC1c1ccc(F)cc1` (stereo unspecified), for which the viability, T/C was 97.8% and 111% and 108%.

The same assay, now with this note: compound 0.003 µM; stronger effect = lower value.
Regarding `CC(C)CC(NC(=O)C(Cc1ccccc1)NC(=O)c1cnccn1)B(O)O` (stereo unspecified), the viability, T/C was 96.2% and 116% and 102%.
In the case of `CCc1c2c(nc3ccc(O)cc13)-c1cc3c(c(=O)n1C2)COC(=O)[C@]3(O)CC`, the viability, T/C was 111% and 144% and 37.7%.
Consider `Nc1ncn(C2CC(O)C(CO)S2)c(=O)n1` (stereo unspecified), for which the viability, T/C was 88% and 111% and 97.1%.

The same assay, now with this note: compound 0.00316 µM; stronger effect = lower value.
As to `CC1COCCN1c1cc(-c2ccnn2C)c2ccnc(-c3ccn[nH]3)c2n1` (stereo unspecified), the viability, T/C is 96.9% and 95.5% and 78.2%.
`CC[C@@]1(O)C(=O)OCc2c1cc1n(c2=O)Cc2cc3c(CN(C)C)c(O)ccc3nc2-1`: the viability, T/C is 104% and 95.7% and 114%.
Still for that read-out and setting: the same measure for `Cn1ncnc1C1c2n[nH]c(=O)c3cc(F)cc(c23)NC1c1ccc(F)cc1` (stereo unspecified): 91.4% and 107% and 93.2%.
On to `Nc1ncn(C2CC(O)C(CO)O2)c(=O)n1` (stereo unspecified), for which the viability, T/C was 102% and 96.5% and 89.6%.

The same assay, now with this note: compound 0.00949 µM; stronger effect = lower value.
Take `CCN(c1cc(-c2ccc(CN3CCOCC3)cc2)cc(C(=O)NCc2c(C)cc(C)[nH]c2=O)c1C)C1CCOCC1`: the viability, T/C is 107% and 112% and 86.8%.
Turning to `CCc1c2c(nc3ccc(O)cc13)-c1cc3c(c(=O)n1C2)COC(=O)[C@]3(O)CC`, the viability, T/C was 70.2% and 115% and 18.8%.
The same measure, in the same setting: next, `Nc1ncn(C2CC(O)C(CO)S2)c(=O)n1` (stereo unspecified): 108% and 115% and 92.5%.
The same measure, in the same setting: the same measure for `O=C(C=Cn1cnc(-c2cc(C(F)(F)F)cc(C(F)(F)F)c2)n1)NNc1cnccn1`: 92.2% and 97% and 81.2%.

Still in this assay, the particulars now being: compound 0.01 µM; stronger effect = lower value.
As for `CC1COCCN1c1cc(-c2ccnn2C)c2ccnc(-c3ccn[nH]3)c2n1` (stereo unspecified), the viability, T/C is 94.7% and 106% and 89.9%.
Regarding `CC[C@@]1(O)C(=O)OCc2c1cc1n(c2=O)Cc2cc3c(CN(C)C)c(O)ccc3nc2-1`, the viability, T/C is 118% and 68.7% and 119%.
Still for that read-out and setting: next, `Cn1ncnc1C1c2n[nH]c(=O)c3cc(F)cc(c23)NC1c1ccc(F)cc1` (stereo unspecified): 103% and 107% and 102%.
On the same count and under the same terms, the same measure for `Nc1ncn(C2CC(O)C(CO)O2)c(=O)n1` (stereo unspecified): 104% and 110% and 93.2%.

The assay is the same for the next values; noted with them: compound 0.03 µM; stronger effect = lower value.
With `CC(C)CC(NC(=O)C(Cc1ccccc1)NC(=O)c1cnccn1)B(O)O` (stereo unspecified), the viability, T/C is 0.39% and 1.22% and 0.15%.
Still for that read-out and setting: the same measure for `CCN(c1cc(-c2ccc(CN3CCOCC3)cc2)cc(C(=O)NCc2c(C)cc(C)[nH]c2=O)c1C)C1CCOCC1`: 99.7% and 104% and 85%; for `CCc1c2c(nc3ccc(O)cc13)-c1cc3c(c(=O)n1C2)COC(=O)[C@]3(O)CC`: 49.7% and 83% and 17.6%; for `Nc1ncn(C2CC(O)C(CO)S2)c(=O)n1` (stereo unspecified): 125% and 111% and 78.5%.
The same measure, in the same setting: the same measure for `O=C(C=Cn1cnc(-c2cc(C(F)(F)F)cc(C(F)(F)F)c2)n1)NNc1cnccn1`: 102% and 90.7% and 65.3%.

Staying with this assay, now noted: compound 0.0316 µM; stronger effect = lower value.
For the compound `CC1(C)CCC(CN2CCN(c3ccc(C(=O)NS(=O)(=O)c4ccc(NCC5CCOCC5)c([N+](=O)[O-])c4)c(Oc4cnc5[nH]ccc5c4)c3)CC2)=C(c2ccc(Cl)cc2)C1`, the viability, T/C was 97.4% and 103% and 99.8%.
For the compound `CC1COCCN1c1cc(-c2ccnn2C)c2ccnc(-c3ccn[nH]3)c2n1` (stereo unspecified), the viability, T/C is 126% and 103% and 38.2%.
Consider `CC1COCCN1c1cc(C2(S(C)(=N)=O)CC2)nc(-c2ccnc3[nH]ccc23)n1` (stereo unspecified), for which the viability, T/C is 102% and 98.7% and 97.3%.
For the compound `CC[C@@]1(O)C(=O)OCc2c1cc1n(c2=O)Cc2cc3c(CN(C)C)c(O)ccc3nc2-1`, the viability, T/C is 106% and 37% and 119%.

The values are drawn from PubChem BioAssay AID1918991 (Molecular Pharmacology Branch, DTP, NCI, 2023).
